Among the data in patent US7022699B2, “Cyclohexenyl phenyl diazepines vasopressin and oxytocin receptor modulators” (Wyeth, priority 2001, dated 2006) are inhibition and melting point values, retold here.

By inhibition is commonly meant the drop in the measured response relative to a control, in per cent. As a reminder, the melting point is the temperature of the solid-liquid transition.

One data set addresses T1, human oxytocin receptor (Homo sapiens, UniProt P30559).
T1 construct: host or cells: CHO cells, stably transfected (pcDNA3.1 vector); membranes
T1 sequence (P30559 1-389): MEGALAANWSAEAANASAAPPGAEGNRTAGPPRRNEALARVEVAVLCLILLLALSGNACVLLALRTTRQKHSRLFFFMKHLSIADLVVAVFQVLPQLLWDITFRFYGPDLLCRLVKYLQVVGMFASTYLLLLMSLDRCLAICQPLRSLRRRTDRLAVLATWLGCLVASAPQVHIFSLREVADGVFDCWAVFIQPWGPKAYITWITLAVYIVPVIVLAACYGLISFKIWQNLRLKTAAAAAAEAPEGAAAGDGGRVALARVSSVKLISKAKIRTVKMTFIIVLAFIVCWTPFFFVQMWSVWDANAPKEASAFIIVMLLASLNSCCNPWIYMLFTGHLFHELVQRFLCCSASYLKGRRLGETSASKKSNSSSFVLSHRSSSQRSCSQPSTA
Description: Oxytocin binding in CHO cell membranes expressing human oxytocin receptors ([3H]oxytocin). As to conditions: 100 nM, values without parentheses, read-out: OT % inhibition @ 100 nM. From the text: Oxytocin Binding in Chinese Hamster Ovary Cell Membranes Expressing Human Oxytocin Receptors
Chinese Hamster Ovary (CHO) cells stably transfected with the human oxytocin (cf. Tanizawa et al., U.S. Pat. No. 5,466,584 (1995) to Rohto Pharmaceutical Co. Ltd., Osaka, Japan) were obtained from M. Thibonnier, Case Western Reserve University School of Medicine, Cleveland, Ohio. A. Passaging and Amplification of Cells: CHO cells transfected with the human oxytocin receptors obtained from M. Thibonnier (pcDNA3.1 vector) are allowed to grow to confluency (approx. >90%) in T-150 flasks under sterile conditions, in a cell culture medium of F-12 Nutrient Mixture (HAM) with L-glutamine (Gibco Cat. #11765-054) containing 15 mM HEPES (Gibco Cat. #15630-080), 1% antibiotic/antimycotic (add 5 mL 100×, Gibco Cat. #15240-062 per 500 mL F-12), 400 μg/mL of Geneticin (add 4 mL of 50 mg/mL per 500 mL F-12) and 10% Fetal Bovine Serum (Qualified, heat inactivated, Gibco Cat. #16140-063). The medium is removed by aspiration and the cells are washed with 10 mL of Hank's Balanced Salt solution (Gibco Cat. #14175-095). The salt solution is removed by aspiration and the cells trypsinized with 5 mL of trypsin-EDTA (0.05% trypsin, 0.53 mM EDTA-4Na, Gibco Cat. #25300-070) for 1 min. The trypsin is removed by aspiration and the cells dislodged by tapping. Cell Culture medium (e.g. 30 mL for 1:30 split) is immediately added and mixed well to inactivate trypsin. 1 mL of detached cells is added to new culture flasks containing fresh Cell Culture medium (e.g. into 25 mL per T-150 flask), and mixed gently. The cells are incubated at 37° C. in 5% CO2. The medium is changed at 3 to 4 days interval (or as appropriate). The cells grow to confluency (approx. >75%–95%) within 7–8 days. All steps are done under sterile conditions. B. Membrane Preparation: The cells are washed twice gently with Hank's Balanced Salt solution (e.g., use 10 mL per T-150 flask). The excess is removed and the cells bathed for 15–30 min. in an enzyme-free Cell Dissociation Buffer (e.g., use 8 mL Hank's Based, Gibco Cat. #13150-016 per T-150 flask) until cells are loosened. The contents are transferred to centrifuge tubes (50 mL size) kept in ice bath. All subsequent steps are done at 4° C. The tubes are centrifuged at 300×g for 15 min (1380 rpm on SORVAL, Model RT6000D, using rotor for 50 mL tubes). The supernatant is discarded and the cells suspended in homogenizing buffer (10 mM Tris-HCl containing 0.25 M sucrose and 1 mM EDTA, pH 7.4) ensuring that the volume of the buffer is about ten times the volume of the cell pellet. The cells are pooled into a centrifuge tube (50 mL) and homogenized with Polytron at setting 6 for 10 sec. The homogenate is transferred into a Potter-Elvjehm homogenizer and homogenized with 3 strokes. The homogenate is centrifuged at 1500×g for 10 min at 4° C. (3100 rpm using SORVAL, model RT6000D, using rotor for 50 mL tubes). The pellet. is discarded. The supernatant is centrifuged at 100,000×g for 60 min. at 4° C. (Beckman L8-80M ultracentrifuge; spin at 37,500 rpm with rotor type 70 Ti for 50 mL tubes; 38,000 rpm with type 80Ti for 15 mL tubes; or 35,800 rpm with rotor type 45Ti). The supernantant is discarded and the pellet suspended in 3 to 4 mL of Tris buffer (50 mM TRIS-HCl, pH 7.4). The protein content is estimated by the Bradford or Lowry method. The volume of the membrane suspension is adjusted with the membrane buffer (50 mM Tris-HCl containing 0.1% BSA and 0.1 mM PMSF) to give 3.0 mg/mL (or as appropriate) of protein. The membranes are aliquoted and stored at −70° C. C. Radioligand Binding Assay: In wells of a 96-well format microliter plate, is added 90, 110 or 130 μL (to make up a final volume of 200 μL) of assay buffer containing 50 mM of Tris-HCl (pH 7.4), […], 1 mg % aprotinin, 1 mg % leupeptin, 2 mg % 1,10-phenanthroline, 10 mg % trypsin inhibitor, and 0.1 mM PMSF. The inhibitors are added on the day of the experiment. […]

In turn, `Cc1cc(C(=O)N2Cc3cccn3Cc3ccccc32)ccc1C1=CC(C)(C)CC(C)(C)C1` [Example 37, (10,11-Dihydro-5H-pyrrolo[2,1-c][1,4]benzodiazepin-10-yl)-[3-methyl-4-(3,3,5,5-tetramethyl-cyclohex-1-en-1-yl)-phenyl]-methanone] registered a melting point of 158 °C. At human oxytocin receptor, the inhibition at 0.1 µM turned out to be 30%.

For `COc1cccc(C2=C(c3ccc(C(=O)N4Cc5cccn5Cc5ccccc54)cc3C)CCCC2)c1` [Example 38, (10,11-Dihydro-5H-pyrrolo[2,1-c][1,4]benzodiazepin-10-yl)-{4-[2-(3-methoxy-phenyl)-cyclohex-1-en-1-yl]-3-methyl-phenyl}-methanone], the melting point was 91 to 94 °C. Besides, the inhibition at 0.1 µM at human oxytocin receptor turned out to be 16%.

`Cc1cc(C(=O)N2Cc3cccn3Cc3ccccc32)ccc1C1=CC(=O)CCC1` [Example 39, 3-[4-(10,11-Dihydro-5H-pyrrolo[2,1-c][1,4]benzodiazepine-10-carbonyl)-2-methyl-phenyl]-cyclohex-2-en-1-one] yielded a melting point of 176 to 177 °C. Besides, the inhibition at 0.1 µM at human oxytocin receptor was 76%.

Molecule `CO[C@@H]1CCCC(c2ccc(C(=O)N3Cc4cccn4Cc4ccccc43)cc2C)=C1C` [Example 44, 10-{4-[(3R)-3-Methoxy-2-methylcyclohex-1-en-1-yl]-3-methylbenzoyl}-10,11-dihydro-5H-pyrrolo[2,1-c][1,4]benzodiazepine] showed a melting point of 127 to 128 °C. For the same molecule, at human oxytocin receptor, the inhibition at 0.1 µM was 96%.
